Assay results: patent US5470737A, “Stably-transformed cells expressing human thiopurine methyltransferase” (priority 1994, dated 1995)
Blank lines part the entries; values can stand above or below the compound they belong to.

Key:
T84 cell TPMT = molecular target: T1, T84 cell TPMT (Homo sapiens, UniProt P51580); test: Panel of methyltransferase inhibitors and ions, T84 cell 100,000×g supernatant; assay type: biochemical; conditions: T84 cell 100,000×g supernatant
T1 construct: Cytosol from T84 cells did contain TPMT enzymatic activity; host or cells: T84 human colon carcinoma cells
T1 sequence (P51580 1-245): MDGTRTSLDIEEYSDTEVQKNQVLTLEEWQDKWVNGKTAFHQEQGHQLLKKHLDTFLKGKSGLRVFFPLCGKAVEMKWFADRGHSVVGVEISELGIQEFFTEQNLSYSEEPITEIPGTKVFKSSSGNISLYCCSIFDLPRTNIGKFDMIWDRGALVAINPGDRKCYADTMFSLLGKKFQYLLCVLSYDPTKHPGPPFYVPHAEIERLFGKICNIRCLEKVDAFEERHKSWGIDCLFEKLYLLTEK
Protocol: (§1) TPMT activity in renal tissue was measured by the method of R. M. Weinshilboum et al., in Clin. Chim. Acta, 85, 323 (1978) as modified by L. C. Woodson et al., Biochem. Pharmacol., 32, 819 (1983) to assay the enzyme in human kidney preparations. […] Ado-Met as the methyl donor. Assay conditions for the measurement of TPMT in T84 human colon carcinoma cells and in COS-1 cells were identical with those used to measure the enzyme activity in human renal tissue. One unit of TPMT activity represented the formation of 1 nmol of 6-MMP per hr of incubation at 37° C.
T84 human colon carcinoma cells (American Type Culture Collection, Rockville, Md.) were grown to confluence in an equal volume mixture of Dulbecco's modified Eagle's medium (DMEM) and Ham's F12 media with 5% fetal calf serum. The cells were then harvested, cell pellets were washed in phosphate buffered saline (PBS), and the pellets were homogenized for 30 sec in 1 ml of 5 mM potassium phosphate buffer, pH 7.5, with a Polytron homogenizer. Homogenates of the cells were centrifuged at 100,000×g for 1 hr at 4° C., and the supernatant was used to assay TPMT activity and to determine selected biochemical properties of the enzyme.
(§2) Finally, the response of the TPMT expressed in COS-1 cells to a panel of methyltransferase inhibitors and ions was compared with that of TPMT activity in human kidney 100,000×g supernatant, partially purified human kidney Peak I TPMT and T84 cell TPMT (Table 3).

[1] = tested on: catechol O-methyltransferase (COMT); conditions: cited from earlier work
[2] = molecular target: T2, TPMT, human kidney 100,000×g supernatant (Homo sapiens, UniProt P51580); test: Panel of methyltransferase inhibitors and ions, human kidney 100,000×g supernatant; assay type: biochemical; conditions: human kidney 100,000×g supernatant
T2 construct: renal tissue was homogenized in 5 mM potassium phosphate buffer, pH 7.5, with a Polytron homogenizer, and a 100,000×g supernatant was prepared; from tissue; host or cells: human kidney (renal tissue)
T2 sequence (P51580 1-245): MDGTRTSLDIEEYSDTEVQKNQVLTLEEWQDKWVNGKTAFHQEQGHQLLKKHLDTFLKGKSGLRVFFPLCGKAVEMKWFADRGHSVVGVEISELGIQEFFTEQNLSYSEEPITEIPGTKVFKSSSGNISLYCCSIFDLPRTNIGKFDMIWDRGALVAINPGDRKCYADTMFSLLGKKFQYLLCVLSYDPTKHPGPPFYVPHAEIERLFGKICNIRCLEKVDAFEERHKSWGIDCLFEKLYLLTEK
Protocol: Renal tissue was obtained either during autopsy or from patients undergoing clinically indicated nephrectomies. Hepatic tissue was obtained from patients who underwent clinically indicated partial hepatectomies for the removal of primary or metastatic hepatic tumors. All tissue was obtained under guidelines approved by the Mayo Clinic Institutional Review Board. Macroscopically normal tissue was stored at -80° C., conditions under which TPMT activity is stable (C. L. Szumlanski et al., Pharmacogenetics, 2, 148 (1992); J. A. Van Loon et al., Drug Met. Disposit., 18, 632 (1990)). Prior to enzyme purification, renal tissue was homogenized in 5 mM potassium phosphate buffer, pH 7.5, with a Polytron homogenizer, and a 100,000×g supernatant was prepared as described by L. C. Woodson et al., Biochem. Pharmacol., 32, 819 (1983). Amino acid sequence information was obtained with TPMT purified from human renal tissue--a tissue with a high specific activity for the enzyme.
as §1, §2

[3] = molecular target: T3, TPMT expressed in COS-1 cells transfected with T84 TPMT cDNA (Homo sapiens, UniProt P51580); test: Panel of methyltransferase inhibitors and ions, COS-1 cells transfected with T84 TPMT cDNA; assay type: biochemical; conditions: COS-1 cells transfected with T84 TPMT cDNA
T3 construct: digested with SstI to excise the coding region, the 5'-untranslated region and a portion (ca. 600 nucleotides) of the 3'-untranslated region; expressed in transfected cells; host or cells: COS-1 (simian), vector P91023(B)
T3 sequence (P51580 1-245): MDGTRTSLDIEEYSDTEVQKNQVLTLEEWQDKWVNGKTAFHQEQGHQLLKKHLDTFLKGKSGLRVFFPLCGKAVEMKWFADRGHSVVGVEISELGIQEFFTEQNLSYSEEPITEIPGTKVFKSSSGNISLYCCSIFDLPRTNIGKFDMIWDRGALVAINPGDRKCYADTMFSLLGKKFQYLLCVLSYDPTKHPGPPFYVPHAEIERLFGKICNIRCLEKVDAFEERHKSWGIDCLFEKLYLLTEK
Protocol: TPMT activity in renal tissue was measured by the method of R. M. Weinshilboum et al., in Clin. Chim. Acta, 85, 323 (1978) as modified by L. C. Woodson et al., Biochem. Pharmacol., 32, 819 (1983) to assay the enzyme in human kidney preparations. […] Assay conditions for the measurement of TPMT in T84 human colon carcinoma cells and in COS-1 cells were identical with those used to measure the enzyme activity in human renal tissue. One unit of TPMT activity represented the formation of 1 nmol of 6-MMP per hr of incubation at 37° C.
Simian COS-1 cells were then plated in 100-mm dishes at a density of 1.5-1.8×10^6 cells/dish in DMEM with 10% fetal calf serum, and were allowed to grow overnight. Three dishes of cells were used for each transfection. Purified "sense" plasmid vector (0.5 μg) was mixed with DEAE-dextran and DMEM, and the mixture was added to the cell culture dishes, following the procedures of J. H. McCutchan et al., J. Natl. Cancer Inst., 41, 351 (1988) and R. J. Kaufman et al., Mol. Cell. Biol., 9, 946 (1989). Control cells were treated with no DNA, with expression vector alone, or with constructs that contained the cDNA clone in an antisense orientation. After 1 hr, the DNA-DEAE-dextran solution was replaced for 2 min with DMEM that contained 10% dimethylsulfoxide, followed by incubation for 2 hr in 0.1 mM chloroquine in DMEM following the procedure of H. Luthman et al., Nucl. Acids Res., 11, 1295 (1983). Cells were then grown for 40-42 hr in DMEM with 10% fetal calf serum. The cells from each transfection were harvested and pooled, cell pellets were washed in 5 ml of PBS, and the cell pellets were homogenized for 30 sec in 2 ml of 5 mM potassium phosphate buffer, pH 7.5. Homogenates were centrifuged at 15,000×g for 15 min at 4° C., supernatants from that step were centrifuged at 100,000×g for 1 hr at 4° C., and 0.25 μl aliquots of 100,000×g supernatant preparations were then assayed for transient expression of TPMT enzymatic activity.

TPMT = molecular target: T4, TPMT (Homo sapiens, UniProt P51580); test: Inhibition of TPMT, all sources of enzyme (summary in words); assay type: biochemical
T4 construct: T84 cDNA transiently expressed in COS-1 cells, plus native human kidney 100,000×g supernatant, partially purified kidney Peak I and T84 cell enzyme
T4 sequence (P51580 1-245): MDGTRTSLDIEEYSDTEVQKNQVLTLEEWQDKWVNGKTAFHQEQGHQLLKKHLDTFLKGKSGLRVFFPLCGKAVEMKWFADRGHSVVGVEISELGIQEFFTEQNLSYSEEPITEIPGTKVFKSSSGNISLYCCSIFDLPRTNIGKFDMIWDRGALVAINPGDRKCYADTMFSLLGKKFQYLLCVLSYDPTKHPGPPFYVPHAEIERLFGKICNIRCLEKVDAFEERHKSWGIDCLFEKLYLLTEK
Description: as §2
As shown by the data in Table 3, the results were nearly identical for all sources of enzyme and each activity was inhibited by the TPMT reaction products, Ado-Hcy and 6-MMP. However, the enzyme was not affected by inhibitors of other methyltransferase enzymes.

human kidney TPMT Peak I = molecular target: T5, human kidney TPMT Peak I (Homo sapiens, UniProt P51580); test: Panel of methyltransferase inhibitors and ions, human kidney Peak I TPMT; assay type: biochemical; conditions: human kidney TPMT Peak I
T5 construct: Human renal tissue contains two isoforms of TPMT, Peak I and Peak II, that can be separated by DEAE ion exchange chromatography; from tissue; host or cells: human kidney, DEAE Peak I, gel filtration
T5 sequence (P51580 1-245): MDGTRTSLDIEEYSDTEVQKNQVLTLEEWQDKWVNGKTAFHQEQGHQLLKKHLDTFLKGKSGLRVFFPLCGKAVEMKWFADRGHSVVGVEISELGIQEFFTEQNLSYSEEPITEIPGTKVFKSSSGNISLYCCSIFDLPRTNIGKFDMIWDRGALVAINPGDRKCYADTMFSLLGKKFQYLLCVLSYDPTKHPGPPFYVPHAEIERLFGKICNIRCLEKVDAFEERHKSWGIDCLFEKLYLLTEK
Description: Human renal tissue contains two isoforms of TPMT, Peak I and Peak II, that can be separated by DEAE ion exchange chromatography as reported by J. A. Van Loon et al., Biochem. Genet., 20, 637 (1982). The two isoforms were separated by DEAE ion exchange chromatography, and the Peak I enzyme was then purified by gel filtration chromatography performed with Sephadex G-100 superfine as described by J. A. Van Loon et al., cited above. In some experiments, hydroxylapatite chromatography performed as described by J. A. Van Loon et al., in Biochem. Pharmacol., 44, 775 (1992) was added as a third purification step.
as §1, §2

human kidney TPMT = molecular target: T6, human kidney TPMT (Homo sapiens, UniProt P51580); conditions: read-out: Apparent Km value for Ado-Met; cited from earlier work
T6 construct: to assay the enzyme in human kidney preparations; host or cells: human kidney
T6 sequence (P51580 1-245): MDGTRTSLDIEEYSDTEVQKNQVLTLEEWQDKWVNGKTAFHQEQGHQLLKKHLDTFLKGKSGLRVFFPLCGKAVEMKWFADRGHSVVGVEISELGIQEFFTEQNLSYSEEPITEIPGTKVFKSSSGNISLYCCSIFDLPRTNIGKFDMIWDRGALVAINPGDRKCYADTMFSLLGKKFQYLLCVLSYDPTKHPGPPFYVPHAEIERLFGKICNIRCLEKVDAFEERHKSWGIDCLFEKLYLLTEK

[4] = tested on: histamine N-methyltransferase (HNMT); conditions: cited from earlier work
[5] = 1 mM, read-out: Activity Remaining, %

Activity Remaining, % (T84 cell TPMT; 1 mM): 95%
Activity Remaining, % ([2]; 1 mM): 96%
Activity Remaining, % ([3]; 1 mM): 96%
effect on TPMT activity (in words) (TPMT): not affected
Activity Remaining, % (human kidney TPMT Peak I; 1 mM): 97%
SMILES: [Ca+2].[Cl-].[Cl-] [CaCl2]
inhibition of catechol O-methyltransferase (in words) [1]: an inhibitor of catechol O-methyltransferase

SMILES: C[S+](CC[C@H](N)C(=O)O)C[C@H]1O[C@@H](n2cnc3c(N)ncnc32)[C@H](O)[C@@H]1O (stereo partly drawn) [Ado-Met, S-adenosyl-L-methionine]
Km (human kidney TPMT): 2700 nM

remaining activity at 5000 µM (T84 cell TPMT; 5 mM): 27%
remaining activity at 5000 µM ([2]; 5 mM): 26%
remaining activity at 5000 µM ([3]; 5 mM): 29%
effect on TPMT activity (in words) (TPMT): inhibited
remaining activity at 5000 µM (human kidney TPMT Peak I; 5 mM): 30%
SMILES: CSc1ncnc2nc[nH]c12 [6-MMP, 6-methylmercaptopurine]

remaining activity at 1000 µM (T84 cell TPMT; [5]): 96%
remaining activity at 1000 µM [2, 5]: 97%
remaining activity at 1000 µM [3, 5]: 95%
effect on TPMT activity (in words) (TPMT): not affected
remaining activity at 1000 µM (human kidney TPMT Peak I; [5]): 90%
SMILES: CCN(CC)Cc1cc(Nc2ccnc3cc(Cl)ccc23)ccc1O [Amodiaquine]
inhibition of histamine N-methyltransferase (in words) [4]: an inhibitor of histamine N-methyltransferase
